# Assay results as given in patent US20240207350A1, “COMBINATION PREPARATION CONTAINING RESVERATROL” (priority 2021, published 2024).
# Tested on: Circulating human tumour cells (CTC's) characterised by EpCAM
# Experiment: in vitro vitality reduction of circulating tumour cells from a blood sample of a prostate carcinoma patient
# Type: cell-based
# Settings: CTCs of a prostate carcinoma patient
# Source text: A patient, suffering from a prostate carcinoma, was examined by checking a blood sample. Circulating human tumour cells (CTC's) characterised by EpCAM and additional cell surface markers have been used. The CTC's have been tested with different anti-cancer drugs. […] Furthermore, the positive effects could be shown to be dose dependent.
structure (smiles),measurement,setting,value
CCC(=O)C(CC(C)N(C)C)(c1ccccc1)c1ccccc1 (centres unmarked) [Methadone],Concentration- and time-dependent specific in vitro vitality reduction (%) in the presence of eutherapeutic concentrations,3 × 15 drops,30%
C[C@H]1[C@H](OC(=O)CCC(=O)O)O[C@@H]2O[C@@]3(C)CC[C@H]4[C@H](C)CC[C@@H]1[C@@]24OO3 [Artesunat],Concentration- and time-dependent specific in vitro vitality reduction (%) in the presence of eutherapeutic concentrations,"eutherapeutic concentration, not specified",60%
"C=C1CC[C@H](O)C/C1=C/C=C1\CCC[C@]2(C)[C@@H]([C@H](C)CCCC(C)(C)O)CC[C@@H]12 [Example 25-OH-D3, 25-OH-D3]",Concentration- and time-dependent specific in vitro vitality reduction (%) in the presence of eutherapeutic concentrations,100 ng/ml,25%
same,Concentration- and time-dependent specific in vitro vitality reduction (%) in the presence of eutherapeutic concentrations,200 ng/ml,30%
"COc1cc(/C=C/C(=O)CC(=O)/C=C/c2ccc(O)c(OC)c2)ccc1O [Curcumin, curcumin]",Concentration- and time-dependent specific in vitro vitality reduction (%) in the presence of eutherapeutic concentrations,450 mg,80%
